Each molecule was assayed against T1, cloned human dopamine D3 receptors (Homo sapiens, UniProt P35462) (assay: [N-Methyl-3H]Spiroperidol binding to cloned human dopamine D3 receptors). Conditions: D3 Ki (nM).
T1 construct: expressed in transfected cells; membrane homogenate
T1 sequence (P35462 whole entry): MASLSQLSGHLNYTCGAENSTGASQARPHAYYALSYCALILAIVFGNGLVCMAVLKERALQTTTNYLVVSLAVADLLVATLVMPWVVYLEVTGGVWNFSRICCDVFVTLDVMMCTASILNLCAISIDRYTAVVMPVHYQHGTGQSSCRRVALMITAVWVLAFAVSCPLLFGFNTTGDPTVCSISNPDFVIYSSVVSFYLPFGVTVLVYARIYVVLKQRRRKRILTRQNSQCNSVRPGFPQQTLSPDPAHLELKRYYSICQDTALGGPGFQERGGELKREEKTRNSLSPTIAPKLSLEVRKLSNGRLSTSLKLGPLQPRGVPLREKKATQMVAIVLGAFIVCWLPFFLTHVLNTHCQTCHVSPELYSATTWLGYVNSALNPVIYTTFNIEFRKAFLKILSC
Procedure, shortened: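 Stably transfected CHO cells expressing cloned human D3 receptor were used as membranes homogenized in 10% DMSO. Ligand was [N-methyl-3H]spiroperidol displacement.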
Work on O=C([C@@H]1C[C@H]1CN1CCC(c2noc3ccsc23)CC1)N1CCC2(CC1)OCCO2 [compound 829466] yielded a Ki of 24.8 nM.

Same assay, conditions: read-out: D3 Ki
In the case of COc1cccc2c(C3CCN(C[C@@H]4C[C@H]4C(=O)NC4CC5CCC(C4)N5C)CC3)nn(C)c12 (stereo partly drawn) [A002328939], the Ki is reported as 201 nM.
Work on Cc1ccc2c(c1)c(C1CCN(C[C@@H]3C[C@H]3C(=O)NC3C4CCC3CN(C)C4)CC1)nn2C (stereo partly drawn) [A002328940] yielded a Ki of 26.8 nM.
For CN1CCN(CCCNC(=O)[C@@H]2C[C@H]2CN2CCN(c3nn(C)c4ccsc34)CC2)CC1 [A002329040], the Ki was 160 nM.
Cn1nc(C2CCN(C[C@@H]3C[C@H]3C(=O)N3CCC(Cn4ccnc4)CC3)CC2)c2cccc(C(F)(F)F)c21 [A002329095] was tested, and the Ki was 26.5 nM.
With O=C(NCCCn1ccnc1)[C@@H]1C[C@H]1CN1CCC(c2nsc3cc(Br)ccc23)CC1 [A002329097] the Ki was 101 nM.
O=C([C@@H]1C[C@H]1CN1CCC(c2nsc3cc(Br)ccc23)CC1)N1CCC(Cn2ccnc2)CC1 [A002329098] showed a Ki of 345 nM.
In the case of O=C(NCCCN1CCCCC1)[C@@H]1C[C@H]1CN1CCC(c2nsc3cc(Br)ccc23)CC1 [A002329100], the Ki is reported as 6.32 nM.
CC1CCN(CCCNC(=O)[C@@H]2C[C@H]2CN2CCN(c3nn(C)c4ccsc34)CC2)CC1 [A002350369] gave a Ki of 100 nM.
Molecule Cn1nc(C2CCN(C[C@@H]3C[C@H]3C(=O)NCC3CCNCC3)CC2)c2ccc(C(F)(F)F)cc21 [A002436288A] has a Ki of 106 nM.
Cn1nc(C2CCN(C[C@@H]3C[C@H]3C(=O)NCCCN3CCCCC3)CC2)c2sccc21 [A002436290] showed a Ki of 520 nM.
Molecule Cn1nc(C2CCN(C[C@@H]3C[C@H]3C(=O)NCCCn3ccnc3)CC2)c2sccc21 [A002436291, 2R-[4-(1-Methyl-1H-thieno[3,2-c]pyrazol-3-yl)-piperidin-1-ylmethyl]-1R-cycloproanecarboxylic acid (3-imidazol-1-yl-propyl)-amide] has a Ki of 0.629 nM.
With Cn1nc(N2CCN(C[C@@H]3C[C@H]3C(=O)NC3CCN(Cc4ccc(F)c(F)c4)CC3)CC2)c2sccc21 [A002436428] the Ki was 2.17 nM.
Cn1nc(N2CCN(C[C@@H]3C[C@H]3C(=O)NC3CCN(Cc4cc(F)ccc4F)CC3)CC2)c2sccc21 [A002436429] gave a Ki of 4.16 nM.
O=C(NC1CCN(Cc2cc(F)ccc2F)CC1)[C@@H]1C[C@H]1CN1CCN(c2nn(-c3ccc(OC(F)(F)F)cc3)c3ccsc23)CC1 [A002437082] gave a Ki of 9.23 nM.
With O=C(NC1CCN(CC2CCCCC2)CC1)[C@@H]1C[C@H]1CN1CCN(c2nn(-c3ccc(OC(F)(F)F)cc3)c3ccsc23)CC1 [A002437084] the Ki was 7.11 nM.
O=C(NCCCN1CCCCC1)[C@@H]1C[C@H]1CN1CCN(c2csc3ncccc23)CC1 [A002437094] showed a Ki of 91.9 nM.
O=C([C@@H]1C[C@H]1CN1CCN(c2nc3cccc4c3n2CCC4)CC1)N1CCC(Cn2ccnc2)CC1 [A002437351] showed a Ki of 32.7 nM.
Work on Cn1nc(C2CCN(C[C@@H]3C[C@H]3C(=O)N3CCC[C@@H](Cn4ccnc4)C3)CC2)c2sccc21 [A002437352] yielded a Ki of 1.22 nM.
With Cn1nc(C2CCN(C[C@@H]3C[C@H]3C(=O)N3CCC[C@@H](Cn4ccnc4)C3)CC2)c2ccc(C(F)(F)F)cc21 [A002437353, (3S-Imidazol-1-ylmethyl-piperidin-1-yl)-{2R-[4-(1-methyl-6-trifluoromethyl-1H-indazol-3-yl)-piperidin-1-ylmethyl]-1R-cyclopropyl}-methanone] the Ki was 0.937 nM.
In the case of Cc1ccc2c(c1)c(C1CCN(C[C@@H]3C[C@H]3C(=O)N3CCC[C@@H](Cn4ccnc4)C3)CC1)nn2C [A002437354], the Ki is reported as 1.03 nM.
For CCC(C)OC(=O)n1cc(C2CCN(C[C@@H]3C[C@H]3C(=O)N3CCC[C@@H](Cn4ccnc4)C3)CC2)c2ccc(C(F)(F)F)cc21 (stereo partly drawn) [A002437355], the Ki was 1.87 nM.
With COc1cccc2c(C3CCN(C[C@@H]4C[C@H]4C(=O)N4CCC[C@@H](Cn5ccnc5)C4)CC3)noc12 [A002437359, (3S-Imidazol-1-ylmethyl-piperidin-1-yl)-{2R-[4-(7-methoxy-benzo[d]isoxazol-3-yl)-piperidin-1-ylmethyl]-1R-cyclopropyl}-methanone] the Ki was 0.541 nM.
For O=C([C@@H]1C[C@H]1CN1CCC(c2noc3c(C(F)(F)F)cccc23)CC1)N1CCC[C@@H](Cn2ccnc2)C1 [A002437360, (3S-Imidazol-1-ylmethyl-piperidin-1-yl)-{2R-[4-(7-trifluoromethyl-benzo[d]isoxazol-3-yl)-piperidin-1-ylmethyl]-1R-cyclopropyl}-methanone], the Ki was 0.239 nM.
Work on CN1CCN(CCCNC(=O)[C@@H]2C[C@H]2CN2CCC(c3csc4cc(C(F)(F)F)ccc34)CC2)CC1 [A002437517] yielded a Ki of 10.5 nM.
O=C([C@@H]1C[C@H]1CN1CCN(c2csc3ncccc23)CC1)N1CCC[C@@H](Cn2ccnc2)C1 [A002437802] showed a Ki of 0.251 nM.
In the case of O=C([C@@H]1C[C@H]1CN1CCN(c2csc3cc(C(F)(F)F)ccc23)CC1)N1CCC[C@H](CO)C1 [A002438636], the Ki is reported as 13 nM.
For O=C([C@@H]1C[C@H]1CN1CCN(c2csc3cc(C(F)(F)F)ccc23)CC1)N1CCC[C@@H](CO)C1 [A002438637], the Ki was 21.2 nM.
Molecule O=C([C@@H]1C[C@H]1CN1CCN(c2csc3cc(C(F)(F)F)ccc23)CC1)N1CCC[C@H](CN2CCCCC2)C1 [A002438638] has a Ki of 3.28 nM.
CN1CCN(CCCNC(=O)[C@@H]2C[C@H]2CN2CCC(c3noc4c(C(F)(F)F)cccc34)CC2)CC1 [A002438639] was tested, and the Ki was 97.3 nM.
Work on CN1CCN(CCCNC(=O)[C@@H]2C[C@H]2CN2CCC(c3nn(C)c4ccsc34)CC2)CC1 [A002438640] yielded a Ki of 104 nM.
Cn1nc(C2CCN(C[C@@H]3C[C@H]3C(=O)NCC3CCN(C(=O)OC(C)(C)C)CC3)CC2)c2sccc21 [A002438641] showed a Ki of 62.8 nM.
O=C([C@@H]1C[C@H]1CN1CCN(c2nc3cccc4c3n2CCC4)CC1)N1CCC[C@@H](Cn2ccnc2)C1 [A002438663] showed a Ki of 1.37 nM.
CN1CCN(CCCNC(=O)[C@@H]2C[C@H]2CN2CCC(c3nsc4cc(Br)ccc34)CC2)CC1 [A002438664] showed a Ki of 6.49 nM.
Work on CN1C2CCC1CC(NC(=O)[C@@H]1C[C@H]1CN1CCN(c3csc4cc(C(F)(F)F)ccc34)CC1)C2 (stereo partly drawn) [A002439099] yielded a Ki of 4.91 nM.
Molecule CN1CCN(CCCNC(=O)[C@@H]2C[C@H]2CN2CCC(c3nn(C)c4c(C(F)(F)F)cccc34)CC2)CC1 [A002439259] has a Ki of 39 nM.
In the case of Cn1nc(C2CCN(C[C@@H]3C[C@H]3C(=O)N3CCC[C@@H](Cn4ccnc4)C3)CC2)c2cccc(C(F)(F)F)c21 [A002439260], the Ki is reported as 0.303 nM.
CC(C)(C)OC(=O)N1CCC(CNC(=O)[C@@H]2C[C@H]2CN2CCC(c3nn(-c4ccccc4)c4ccsc34)CC2)CC1 [A002439262] gave a Ki of 28.3 nM.
CN1CCN(CCCNC(=O)[C@@H]2C[C@H]2CN2CCC(c3nn(-c4ccccc4)c4ccsc34)CC2)CC1 [A002439263] gave a Ki of 30.6 nM.
CC(C)(C)OC(=O)N1CCC(CNC(=O)[C@@H]2C[C@H]2CN2CCC(c3nn(CC(F)(F)F)c4ccsc34)CC2)CC1 [A002439266] was tested, and the Ki was 66 nM.
With Cn1nc(C2CCN(C[C@@H]3C[C@H]3C(=O)NCC3CCNCC3)CC2)c2cccc(C(F)(F)F)c21 [A002440433A] the Ki was 180 nM.
For Cn1nc(C2CCN(C[C@@H]3C[C@H]3C(=O)NCC3CCNCC3)CC2)c2sccc21 [A002440434A], the Ki was 462 nM.
Work on O=C(NCC1CCNCC1)[C@@H]1C[C@H]1CN1CCC(c2nn(CC(F)(F)F)c3ccsc23)CC1 [A002440435A] yielded a Ki of 305 nM.
O=C(NCC1CCNCC1)[C@@H]1C[C@H]1CN1CCC(c2nn(-c3ccccc3)c3ccsc23)CC1 [A002440436A] gave a Ki of 11.4 nM.
O=C(NCC1CCNCC1)[C@@H]1C[C@H]1CN1CCC(c2noc3c(C(F)(F)F)cccc23)CC1 [A002440437A] was tested, and the Ki was 41.2 nM.
With O=C([C@@H]1C[C@H]1CN1CCC(c2csc3cc(C(F)(F)F)ccc23)CC1)N1CCC[C@@H](Cn2ccnc2)C1 [A002609935, (3S-Imidazol-1-ylmethyl-piperidin-1-yl)-{2R-[4-(6-trifluoromethyl-benzo[b]thiophen-3-yl)-piperidin-1-ylmethyl]-1R-cyclopropyl}-methanone] the Ki was 0.142 nM.
O=C([C@@H]1C[C@H]1CN1CCN(c2csc3cc(F)ccc23)CC1)N1CCC(O)CC1 [compound 828716] gave a Ki of 2.38 nM.
For O=C(NC1CC1)[C@@H]1C[C@H]1CN1CCC(c2noc3ccsc23)CC1 [compound 829460], the Ki was 158 nM.
CC1(C)COCN1C(=O)[C@@H]1C[C@H]1CN1CCC(c2noc3ccsc23)CC1 [compound 829464] showed a Ki of 22.4 nM.
Work on O=C([C@@H]1C[C@H]1CN1CCC(c2noc3ccsc23)CC1)N1CCN(c2ccc(F)cc2)CC1 [compound 829465] yielded a Ki of 80.3 nM.
For O=C([C@@H]1C[C@H]1CN1CCC(c2noc3ccsc23)CC1)N1CCN(C/C=C/c2ccccc2)CC1 [compound 829467], the Ki was 9.01 nM.
Molecule O=C(NCCCn1ccnc1)[C@@H]1C[C@H]1CN1CCC(c2noc3ccsc23)CC1 [compound 829596] has a Ki of 4.41 nM.
CC1CCC(NC(=O)C2CC2CN2C3CCC2CC(c2n[nH]c4ccccc24)C3)CC1 (stereo not drawn) [compound 830115] was tested, and the Ki was 45.3 nM.
Molecule CCC1CCC(NC(=O)C2CC2CN2C3CCC2CC(c2n[nH]c4cc(F)ccc24)C3)CC1 (stereo not drawn) [compound 830130] has a Ki of 6.68 nM.
Molecule O=C([C@@H]1C[C@H]1CN1CCC(c2noc3ccsc23)CC1)N1CCC(O)CC1 [compound 830250] has a Ki of 48.6 nM.

Same assay, conditions: read-out: d3Ki
Work on CN(C(=O)CCCCN1CCN(c2csc3cc(F)ccc23)CC1)c1ccc(C(C)(C)C)cc1 [compound 822140] yielded a Ki of 113 nM.
With C[C@H]1CC[C@H](NC(=O)CCCN2CCN(c3csc4cc(C(F)(F)F)ccc34)CC2)CC1 [compound 826804] the Ki was 67.4 nM.
Work on CCOC(=O)[C@H]1CC[C@H](NC(=O)CCCN2CCN(c3csc4cc(C(F)(F)F)ccc34)CC2)CC1 [compound 826805] yielded a Ki of 14.2 nM.
For CC[C@H]1CC[C@H](NC(=O)CCCN2CCN(c3csc4cc(C(F)(F)F)ccc34)CC2)CC1 [compound 826806], the Ki was 40 nM.
CCN(C(=O)CCCN1CCN(c2csc3cc(C(F)(F)F)ccc23)CC1)C1CCCCC1 [compound 826809] gave a Ki of 71 nM.
Work on CC1(C)CCCN(C(=O)CCCN2CCN(c3csc4cc(C(F)(F)F)ccc34)CC2)C1 [compound 826817] yielded a Ki of 20 nM.
CCN(C(=O)CCCN1CCCN(c2csc3cc(F)ccc23)CC1)C1CCCCC1 [compound 826829] was tested, and the Ki was 1.5 nM.
In the case of O=C(CCCN1CCN(c2csc3cc(F)ccc23)CC1CCCc1ccccc1)N(CCO)C1CCCCC1 (stereo not drawn) [compound 827111], the Ki is reported as 14.3 nM.
